The text below walks through data of patent publication US12187816B2, “Macrocyclic compounds and methods of use thereof” (Genentech, Inc., priority 2020, dated 2025).

Starred links: 1 amine or outer side, 2 acyl side, 3 side chain; linkers in the order of their positions; H or OH if unused. Positions of bridges follow the written chain, without caps; N, C: chain ends. Non-standard residues stand in square brackets, D forms with d. Residues, ends and D or L forms follow the SMILES beside them. *: point of attachment. X14 = Cn1cc2c3c(c[nH]c3c1=O)CN(c1ncc(F)cc1F)c1cc(C(=O)*)c(CS(C)(=O)=O)cc1-2; X11 = CC(=O)N1c2ccc(-c3ccc(C(=O)*)cc3)cc2[C@H](Nc2ccc(Cl)cc2)C[C@@H]1C; JQ1acid = Cc1sc2c(c1C)C(c1ccc(Cl)cc1)=N[C@@H](CC(=O)*)c1nnc(C)n1-2; dPhg(4-(4-Me-thiazol-5-yl)) = Cc1ncsc1-c1ccc([C@@H](N)C(=O)O)cc1; Bip = N[C@@H](Cc1ccc(-c2ccccc2)cc1)C(=O)O; X5 = O=C([C@@H](Cc1ccc(Br)s1)N[*:1])[*:2]; dBip = N[C@H](Cc1ccc(-c2ccccc2)cc1)C(=O)O; X7 = O=C([C@H](Cc1ccc(Br)s1)N[*:1])[*:2]; X4 = O=C([C@H]1CN([*:3])CCN1[*:1])[*:2]; Hyp = O=C(O)[C@@H]1C[C@@H](O)CN1; Tle = CC(C)(C)[C@H](N)C(=O)O; dDap = NC[C@@H](N)C(=O)O A value given as a limit tells only on which side of the number the result lay.

The assay deals with T1, BRD4 (Homo sapiens, UniProt O60885).
T1 construct: Mean 488 intensity of BRD4 quantitated in nuclear region; endogenous in cells; host or cells: EoL-1 eosinophilic leukemia cells
Description: BRD4 degradation assay in EOL1 cells (immunofluorescence imaging). Format: cell-based. Conditions: EoL-1 eosinophilic leukemia cells, 4 hours treatment, nuclear BRD4 immunofluorescence. The procedure:
BRD4 Degradation Assay in EOL1 Cells
EoL-1 eosinophilic leukemia cells were seeded on day 1 at a density of 45,000 cells per well in Corning PureCoat Amine Microplates, (Corning #354719) in 45 μL/well of assay media (RPMI, 10% FBS, containing L-glutamine). After cells attached to cell plate, compounds were serially diluted ⅓ in dimethylsulfoxide (DMSO) to create 20-point dilutions across a 384 well v-bottom polypropylene microplate (Greiner #781091). 2 μL of each sample from the serial dilution was transferred to 98 μL of assay media as an intermediate dilution. 5 μL of each well of the intermediate dilution was added to 45 μL of cell plate. Columns 1, 2, 23 and 24 were treated with only 0.2% final concentration of DMSO for data normalization as “neutral controls”. After compound treatment, cell plates were stored in a 37° C. incubator for 4 hours. After 4 hours cells were fixed in 3.7% w/v final concentration of paraformaldehyde by addition of 15 μL of 16% w/v paraformaldehyde (Electron Microscopy Sciences #15710-S) directly to the 50 μL media and compound in the cell plate. Cell plate was incubated at RT for 20 minutes. Well contents were aspirated and washed with 100 μL/well PBS 3 times. 50 ul/well of phosphate Buffered Saline (PBS) (pH 7.5) containing 0.5% w/v bovine serum albumen, 0.5% w/v Triton X-100 (Block/Permeabilization Buffer) was added to each well. Samples were incubated for 20 minutes. Well contents were aspirated and washed 3 times with 100 μL/well of PBS. PBS was aspirated from the well and 50 μL per well of EoL-1 Block Buffer (PBS containing 10% Normal Goat Serum (AbCam #ab7481)) was added to each well. Plates were incubated at room temperature for 30 minutes. Block buffer was decanted from the wells. Immunofluorescence staining of BRD4 was carried out by diluting mAB Anti-BRD4 [EPR5150] antibody (Abcam 128874) 1:500 into Antibody Dilution Buffer (PBS, 2% Normal Goat Serum). 25 μL per well of BRD4 antibody diluted in buffer was added and incubated overnight at 4° C.
On day-2 samples were washed 3 times with 100 μL/well of PBS. 25 μL/well of secondary antibody solution (Goat Anti-Rabbit IgG, DyLight 488 Conjugated Highly Cross-adsorbed Thermo Fisher #35553) and Hoechst 33342 1 μg/ml diluted in Antibody Dilution Buffer) were dispensed into each well. Hoechst 33342 only was added to bottom 3 columns for data normalization as “inhibitor controls”. Samples were incubated for 2 hours at room temperature. Samples were washed 3 times with 100 μL PBS. Quantitative fluorescence imaging of BRD4 was carried out using an Opera Phenix High-Content Screening System. Fluorescent images of the samples were captured using 488 nm and 405 nm channels. Hoechst channel was used to identify nuclear region. Mean 488 intensity of BRD4 quantitated in nuclear region. Data analysis was carried out using Genedata Screener, with DMSO and no primary antibody control treated samples being used to define the 0% and 100% changes in BRD4. The dose-response log(inhibitor) vs. response used to define the inflexion point of curve (DC50) and the plateau of the maximal effect.
The individual topological polar surface area (TPSA) and cLogP values were calculated using Chemdraw v. 15.1 (PerkinElmer). Half life of the ternary VHL/BD1 and VHL/BD2 complexes, DC50 of BRD4 in EOL1 cells, topological polar surface area of a molecule (TPSA) and c log P (lipophilicity) for compounds described herein are provided in Table 3.

`Cc1sc2c(c1C)C(c1ccc(Cl)cc1)=N[C@@H](CC(=O)NC[C@H]1NC(=O)CNC(=O)[C@@H](Cc3ccc(-c4ccccc4)cc3)NC(=O)[C@@H]3C[C@@H](O)CN3C(=O)[C@H](C(C)(C)C)NC(=O)CSC[C@H](C(N)=O)NC1=O)c1nnc(C)n1-2` [Compound 18] ({CH2CO}-[Tle][Hyp][dBip]G[dDap](JQ1acid)[dC]-NH2; thioether N-6) came in with a 50% degradation concentration (DC50) below 1 µM.

Compound `Cc1sc2c(c1C)C(c1ccc(Cl)cc1)=N[C@@H](CC(=O)NC[C@H]1NC(=O)CNC(=O)[C@H](Cc3ccc(-c4ccccc4)cc3)NC(=O)[C@@H]3C[C@@H](O)CN3C(=O)[C@H](C(C)(C)C)NC(=O)CSC[C@H](C(N)=O)NC1=O)c1nnc(C)n1-2` [Compound 19] ({CH2CO}-[Tle][Hyp][Bip]G[dDap](JQ1acid)[dC]-NH2; thioether N-6) returned a DC50 below 20 µM.

`Cc1sc2c(c1C)C(c1ccc(Cl)cc1)=N[C@@H](CC(=O)NC[C@H]1NC(=O)CNC(=O)[C@H](Cc3ccc(Br)s3)NC(=O)[C@@H]3C[C@@H](O)CN3C(=O)[C@H](C(C)(C)C)NC(=O)CSC[C@H](C(N)=O)NC1=O)c1nnc(C)n1-2` [Compound 20] ({CH2CO}-[Tle][Hyp][X7]G[dDap](JQ1acid)[dC]-NH2; thioether N-6) displayed a DC50 below 1 µM. The same measure for `CC(=O)N1c2ccc(-c3ccc(C(=O)NC[C@H]4NC(=O)CNC(=O)[C@@H](c5ccc(-c6scnc6C)cc5)NC(=O)[C@@H]5C[C@@H](O)CN5C(=O)[C@H](C(C)(C)C)NC(=O)CSC[C@H](C(N)=O)NC4=O)cc3)cc2[C@H](Nc2ccc(Cl)cc2)C[C@@H]1C` [Compound 21] ({CH2CO}-[Tle][Hyp][dPhg(4-(4-Me-thiazol-5-yl))]G[dDap](X11)[dC]-NH2; thioether N-6): above 20 µM; for `Cc1ncsc1-c1ccc([C@H]2NC(=O)[C@@H]3C[C@@H](O)CN3C(=O)[C@H](C(C)(C)C)NC(=O)CSC[C@H](C(N)=O)NC(=O)[C@@H](CNC(=O)c3cc4c(cc3CS(C)(=O)=O)-c3cn(C)c(=O)c5[nH]cc(c35)CN4c3ncc(F)cc3F)NC(=O)CNC2=O)cc1` [Compound 22] ({CH2CO}-[Tle][Hyp][dPhg(4-(4-Me-thiazol-5-yl))]G[dDap](X14)[dC]-NH2; thioether N-6): above 20 µM; for `Cc1sc2c(c1C)C(c1ccc(Cl)cc1)=N[C@@H](CC(=O)NC[C@H]1NC(=O)CNC(=O)[C@@H](Cc3ccc(Br)s3)NC(=O)[C@@H]3C[C@@H](O)CN3C(=O)[C@H](C(C)(C)C)NC(=O)CSC[C@H](C(N)=O)NC1=O)c1nnc(C)n1-2` [Compound 23] ({CH2CO}-[Tle][Hyp][X5]G[dDap](JQ1acid)[dC]-NH2; thioether N-6): below 1 µM. As for `COc1ccc(C[C@@H]2NC(=O)[C@@H]3C[C@@H](O)CN3C(=O)[C@H](C(C)(C)C)NC(=O)CSC[C@H](C(N)=O)NC(=O)[C@@H](CNC(=O)C[C@@H]3N=C(c4ccc(Cl)cc4)c4c(sc(C)c4C)-n4c(C)nnc43)NC(=O)CNC2=O)cc1` [Compound 24] ({CH2CO}-[Tle][Hyp]Y(Me)G[dDap](JQ1acid)[dC]-NH2; thioether N-6), the figure is above 20 µM; as for `Cc1ncsc1-c1ccc([C@H]2NC(=O)[C@@H]3C[C@@H](O)CN3C(=O)[C@H](C(C)(C)C)NC(=O)CSC[C@H](C(N)=O)NC(=O)[C@H]3CN(C(=O)C[C@@H]4N=C(c5ccc(Cl)cc5)c5c(sc(C)c5C)-n5c(C)nnc54)CCN3C(=O)CNC2=O)cc1` [Compound 25] ({CH2CO}-[Tle][Hyp][dPhg(4-(4-Me-thiazol-5-yl))]G[X4](JQ1acid)[dC]-NH2; thioether N-6), below 20 µM. As for `Cc1ncsc1-c1ccc([C@H]2NC(=O)[C@@H]3C[C@@H](O)CN3C(=O)[C@H](C(C)(C)C)NC(=O)CSC[C@H](C(N)=O)NC(=O)[C@@H](CNC(=O)C[C@@H]3N=C(c4ccc(Cl)cc4)c4c(sc(C)c4C)-n4c(C)nnc43)NC(=O)[C@@H](C)NC2=O)cc1` [Compound 26] ({CH2CO}-[Tle][Hyp][dPhg(4-(4-Me-thiazol-5-yl))][dA][dDap](JQ1acid)[dC]-NH2; thioether N-6), the figure is below 1 µM.
